Publication PMC6149774, “Inhibition by Commercial Aminoglycosides of Human Connexin Hemichannels Expressed in Bacteria” (Molecules : A Journal of Synthetic Chemistry and Natural …, 2017)

What was measured:
GJCs = tested on: GJCs; design: method as in PMID 26769242, PMID 25237294; settings: cited from earlier work
HCs = tested on: HCs; design: method as in PMID 26769242, PMID 25237294; settings: mammalian cells and frog oocytes; cited from earlier work
human Cx26 hemichannels = biological target: T1, human Cx26 hemichannels (Homo sapiens, UniProt P29033); experiment: Cx26-dependent growth complementation assay in LB2003 cells; format: cell-based; settings: for Reduction of Cx26-dependent growth complementation: 100 μM aminoglycoside
T1 construct: Details of the human Cx26, Cx43, and Cx46 DNAs used to transform LB2003 cells have been published; expressed in transfected cells; host or cells: E. coli LB2003 (with pREP4), IPTG-induced from pQE60
Protocol: (§1) We then tested all AGs in Figure 4 for inhibition of connexin-dependent growth in AG-resistant LB2003 cells transformed with the pREP4 plasmid.
(§2) Basically, freshly prepared competent LB2003 containing the pREP4 plasmid were transformed with pQE60 (empty plasmid; negative control), pQE-Cx26 (human Cx26 DNA into pQE60), pQE-Cx43 (human Cx43 into pQE60) or pQE-Cx46 (human Cx46 into pQE60). After growing overnight in Luria-Bertani (LB) medium (BD, Franklin Lakes, NJ, USA) supplemented with 100 mM KCl (to allow growth) and 0.4 mg/mL ampicillin, the cells were washed four times with NLM, to remove residual potassium from the LB medium, and were resuspended in complementation growth medium to an OD600 of 0.2. NLM contained 46 mM Na2HPO4, 23 mM NaH2PO4, 8 mM (NH4)2SO4, 0.4 mM MgSO4, 0.012 mM FeSO4, 1 mM sodium citrate, 44 mM glucose, and 0.006 mM thiamine hydrochloride, pH 7.0. KLM was identical to NLM except for the equimolar replacement of Na^+ with K^+. For growth-complementation by Cx26, Cx43, and Cx46 in low-[K^+] medium we used NLM + 4 mM KCl, NLM + 8 mM KCl, and NLM + 16 mM KCl, respectively. Expression of Cx26 was induced with 0.5 mM IPTG (GoldBio, St. Louis, MO, USA) at the time of dilution to OD600 = 0.2. For growth-complementation by Cx43 and Cx46, we used 10 µM IPTG. Transformed cells in the appropriate growth medium were seeded in 24- or 96-well plates, and the plates were incubated at 30 °C, with shaking at 250 and 500 rpm, respectively. OD600 was measured after 18 h manually for the 24-well plates or in a plate reader for the 96-well plates (Falcon 353072, Corning Inc., Corning, NY, USA). The initial OD600 = 0.2 was subtracted for growth calculations.

human Cx46 hemichannels = biological target: T2, human Cx46 hemichannels (Homo sapiens, UniProt Q9Y6H8); experiment: Cx46-dependent growth complementation assay in LB2003 cells; format: cell-based; settings: for IC50: LB2003-pREP4 cells, NLM + 16 mM KCl, 10 µM IPTG, OD600 after 18 h, mean ± SEM
T2 construct: Details of the human Cx26, Cx43, and Cx46 DNAs used to transform LB2003 cells have been published; expressed in transfected cells; host or cells: E. coli LB2003 (with pREP4), IPTG-induced from pQE60
Description: The first task is accomplished through the use of defined media. We use Na^+ liquid medium (NLM) and K^+ liquid medium (KLM). NLM is a K^+-free phosphate-buffered medium (see Materials and Methods), whereas KLM is a K^+-rich medium that has the composition of NLM, except for the equimolar replacement of Na^+ with K^+. […] By mixing NLM and KLM it is easy to find a range of low [K^+]s where LB2003 cells expressing connexins grow. To optimize the signal-to-noise ratio we identified the “low” [K^+] at which the connexin-expressing cells grow to the highest absorbance measured at 600 nm (OD600), and then tested the dependence of the growth on the concentration of the expression inducer, isopropyl-β-D-thiogalactopyranoside (IPTG). This is important because the optimal signal-to-noise ratio depends on a balance between sufficient permeability to allow K^+ uptake through HCs and too many active HCs, which inhibits growth as a result of depolarization of the inner membrane and/or unbalanced shifts of ions and metabolites. In the case of Cx26, optimal growth is achieved with 4 mM K^+ and 500 μM IPTG, but for Cx43, 8 mM K^+ and 10 μM IPTG work best. From initial trials, we identified 16 mM K^+ and 10 μM IPTG as the best conditions for the Cx46 growth complementation assay.
This aminoglycoside 3'-phosphotransferase inactivates the AGs in Figure 4 by phosphorylation, allowing us to test for inhibition of connexin-dependent growth complementation without interference by the AG antibiotic effect. The absence of antibiotic effect in the LB2003-pREP4 cells was assayed at an AG concentration of 100 μM in cells grown in KLM (Figure 5). […] We then tested all AGs in Figure 4 for inhibition of connexin-dependent growth in AG-resistant LB2003 cells transformed with the pREP4 plasmid.
Briefly, pQE60 plasmids containing the connexin DNAs and plasmid pREP4 were used for transformation of E. coli LB2003 cells (generously provided by Dr. E.P. Bakker, Osnabrück University, Osnabrück, Germany). The pQE60 plasmids confer resistance to ampicillin, and pREP4 confers resistance to the AGs used in this study. LB2003 cells are missing three key K^+ transporters (Δtrk, Δkup, and Δkdp strains) and as a result cannot grow in low-[K^+] media [22, 23, 25]. Transformed LB2003 cells were stored as a 25% glycerol stock at −80 °C.
Basically, freshly prepared competent LB2003 containing the pREP4 plasmid were transformed with pQE60 (empty plasmid; negative control), pQE-Cx26 (human Cx26 DNA into pQE60), pQE-Cx43 (human Cx43 into pQE60) or pQE-Cx46 (human Cx46 into pQE60).

human Cx43 hemichannels = biological target: T3, human Cx43 hemichannels (Homo sapiens, UniProt P17302); experiment: Cx43-dependent growth complementation assay in LB2003 cells; format: cell-based; settings: for IC50: LB2003-pREP4 cells, NLM + 8 mM KCl, 10 µM IPTG, OD600 after 18 h, mean ± SEM
T3 construct: Details of the human Cx26, Cx43, and Cx46 DNAs used to transform LB2003 cells have been published; expressed in transfected cells; host or cells: E. coli LB2003 (with pREP4), IPTG-induced from pQE60
Protocol: as §1, §2

[1] = tested on: Cx26, Cx43, and Cx46 hemichannels; design: method as in PMID 25585383, PMID 27789753; settings: cited from earlier work
LB2003 cells = experiment: Antibiotic effect on growth of LB2003 cells in KLM; format: cell-based, Escherichia coli; settings: 100 μM, cells grown in KLM
Protocol: The absence of antibiotic effect in the LB2003-pREP4 cells was assayed at an AG concentration of 100 μM in cells grown in KLM (Figure 5).
All drugs were used at a concentration of 100 μM. The cells were grown in K^+ liquid medium (KLM). […] Data were normalized to the OD600 of LB2003-pREP4 cells in the absence of drug (5.7 ± 0.1).

[2] = tested on: Cx26, Cx43, and Cx46 hemichannels; experiment: Connexin-dependent growth complementation assay, all connexin groups together; format: cell-based, human; settings: 100 μM aminoglycoside, AG-resistant LB2003 cells with pREP4
Protocol: The absence of antibiotic effect in the LB2003-pREP4 cells was assayed at an AG concentration of 100 μM in cells grown in KLM (Figure 5). […] We then tested all AGs in Figure 4 for inhibition of connexin-dependent growth in AG-resistant LB2003 cells transformed with the pREP4 plasmid.
Basically, freshly prepared competent LB2003 containing the pREP4 plasmid were transformed with pQE60 (empty plasmid; negative control), pQE-Cx26 (human Cx26 DNA into pQE60), pQE-Cx43 (human Cx43 into pQE60) or pQE-Cx46 (human Cx46 into pQE60). After growing overnight in Luria-Bertani (LB) medium (BD, Franklin Lakes, NJ, USA) supplemented with 100 mM KCl (to allow growth) and 0.4 mg/mL ampicillin, the cells were washed four times with NLM, to remove residual potassium from the LB medium, and were resuspended in complementation growth medium to an OD600 of 0.2. NLM contained 46 mM Na2HPO4, 23 mM NaH2PO4, 8 mM (NH4)2SO4, 0.4 mM MgSO4, 0.012 mM FeSO4, 1 mM sodium citrate, 44 mM glucose, and 0.006 mM thiamine hydrochloride, pH 7.0. KLM was identical to NLM except for the equimolar replacement of Na^+ with K^+. For growth-complementation by Cx26, Cx43, and Cx46 in low-[K^+] medium we used NLM + 4 mM KCl, NLM + 8 mM KCl, and NLM + 16 mM KCl, respectively. […] OD600 was measured after 18 h manually for the 24-well plates or in a plate reader for the 96-well plates (Falcon 353072, Corning Inc., Corning, NY, USA). […]

[3] = LB2003-pREP4 cells, NLM + 4 mM KCl, 0.5 mM IPTG, OD600 after 18 h, mean ± SEM

T3 sequence (P17302 whole entry): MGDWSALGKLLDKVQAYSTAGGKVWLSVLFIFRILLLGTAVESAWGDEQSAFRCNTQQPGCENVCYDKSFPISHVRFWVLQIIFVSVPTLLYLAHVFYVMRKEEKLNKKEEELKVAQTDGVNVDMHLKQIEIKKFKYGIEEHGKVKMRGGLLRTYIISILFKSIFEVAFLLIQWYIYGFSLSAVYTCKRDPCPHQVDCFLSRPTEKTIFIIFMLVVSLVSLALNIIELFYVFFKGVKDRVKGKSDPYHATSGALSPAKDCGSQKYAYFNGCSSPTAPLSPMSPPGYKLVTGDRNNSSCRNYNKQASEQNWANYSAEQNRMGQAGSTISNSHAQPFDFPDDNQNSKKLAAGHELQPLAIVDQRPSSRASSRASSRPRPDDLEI

CNC(C)C1CCC(N)C(OC2C(N)CC(N)C(OC3OCC(C)(O)C(NC)C3O)C2O)O1 (stereo not drawn) [gentamicin]
Effect on GJCs (GJCs): does not affect GJCs | Effect on HCs (HCs): inhibits HCs reversibly

NC[C@H]1O[C@H](O[C@H]2[C@H](O)[C@@H](O[C@H]3O[C@H](CO)[C@@H](O)[C@H](N)[C@H]3O)[C@H](N)C[C@@H]2N)[C@H](N)[C@@H](O)[C@@H]1O [Kanamycin B, kanamycin B]
IC50 (human Cx26 hemichannels; [3]): 3.6 ± 0.9 µM | IC50 (human Cx46 hemichannels): 175 ± 9 µM | IC50 ratio relative to Cx26 for Cx46 (human Cx46 hemichannels; isoform selectivity, Cx46 IC50 / Cx26 IC50): ~ 50 | IC50 (human Cx43 hemichannels): 24 ± 2 µM | IC50 ratio relative to Cx26 for Cx43 (human Cx43 hemichannels; isoform selectivity, Cx43 IC50 / Cx26 IC50): ~ 7

kanamycin A
Effect on HCs in LB2003 cell growth assay [1]: inhibited HCs | Growth of AG-sensitive LB2003 cells (no pREP4) (LB2003 cells): prevented growth

CN[C@@H]1[C@@H](O)[C@@H](O[C@@H]2[C@@H](O)[C@H](O[C@H]3O[C@H]([C@@H](C)O)[C@@H](O)[C@H](O)[C@H]3N)[C@@H](N)C[C@H]2N)OC[C@]1(C)O [Geneticin, geneticin]
IC50 (human Cx26 hemichannels; IC50 of Cx26-dependent complementation (Figure 6), Figure 6A, fit of Hill's equation): 0.436 µM

NC[C@H]1O[C@H](O[C@H]2[C@H](O[C@@H]3O[C@H](CO)[C@@H](O)[C@H]3O)[C@@H](O)[C@H](N)C[C@@H]2N)[C@H](N)[C@@H](O)[C@@H]1O [ribostamycin]
Reduction of Cx26-dependent growth complementation (human Cx26 hemichannels): 35 ± 3% | Effect on Cx43-dependent growth complementation (inhibition) (human Cx43 hemichannels; 100 μM aminoglycoside): −8 ± 5% | Inhibition of connexin-dependent growth [2]: only a marginal effect

NC[C@@H]1O[C@H](O[C@H]2[C@@H](O)[C@H](O[C@@H]3[C@@H](O)[C@H](N)C[C@H](N)[C@H]3O[C@H]3O[C@H](CO)[C@@H](O)[C@H](O)[C@H]3N)O[C@@H]2CO)[C@H](N)[C@@H](O)[C@@H]1O [Paromomycin, paromomycin]
Reduction of Cx26-dependent growth complementation (human Cx26 hemichannels): ~ 80% | IC50 (human Cx26 hemichannels; [3]): 42 ± 9 µM | Inhibition of Cx46-dependent growth complementation (human Cx46 hemichannels; 200 μM aminoglycoside): 37 ± 4% | IC50 (human Cx46 hemichannels): > 200 µM | IC50 (human Cx43 hemichannels): 201 ± 17 µM
